US9078890B2, “Use of koumine and its homologues in preparation of medicament for treatment of autoimmune diseases of involved bones and joints” (priority 2011, dated 2015)
Marks after values point to notes of the source that are not given here.

Experiments:
[1] = in vivo; conditions: mouse, sc
[2] = test system: adjuvant arthritis mice; experiment: Adjuvant arthritis mice: phlogogenic paw swelling (paw thickness); assay type: in vivo, Kunming mice; conditions: koumine 0.8, 4, 20 mg/kg intragastric once daily; Day 4-18 after inflammation
Procedure: BCG was inactivated in water bath at 80° C., and fully emulsified along with complete Freund's adjuvant to form complete Freund's adjuvant emulsion containing 5 mg/ml BCG, preserved at 4° C., and shake well before use. The Kunming mice were divided into a modeling group and a false modeling group. According to the method recited in the literature [Rasool M, Sabina E P, Lavanya B. Anti-inflammatory effect of Spirulina fusiformis on adjuvant-induced arthritis in mice. Biol Pharm Bull. 2006, 29(12):2483-7], for the modeling group, the model was prepared by intradermal injection of 20 ul the emulsion under the plantar surface of right paws after the mice was narcotized; for the false modeling group, the emulsion was replaced with physiological saline. For the modeling group, the animals were screened on Day 8 after injection: the mice with the injected paw thickness increased >0.5 mm and thermal hyperalgesia occurred (paw thermal withdrawal latency <8 second) were selected as experimental subjects. […]
According to Methodology of Pharmacological Experiment (Shuyun Xu, Rulian Bian: Methodology of Pharmacological Experiment [M], 3rd Ed., People's Medical Publishing House: 912-913), paw thickness was selected as a paw swelling index and was measured using vernier caliper, measuring timing is the same as above, each measurement repeats 3 times and the average was taken (similarly hereinafter).

[3] = test system: adjuvant arthritis mice; experiment: Adjuvant arthritis mice: hyperalgesia (phlogogenic paw thermal withdrawal latency); assay type: in vivo, Kunming mice
Procedure: (§1) BCG was inactivated in water bath at 80° C., and fully emulsified along with complete Freund's adjuvant to form complete Freund's adjuvant emulsion containing 5 mg/ml BCG, preserved at 4° C., and shake well before use. The Kunming mice were divided into a modeling group and a false modeling group. According to the method recited in the literature [Rasool M, Sabina E P, Lavanya B. Anti-inflammatory effect of Spirulina fusiformis on adjuvant-induced arthritis in mice. Biol Pharm Bull. 2006, 29(12):2483-7], for the modeling group, the model was prepared by intradermal injection of 20 ul the emulsion under the plantar surface of right paws after the mice was narcotized; for the false modeling group, the emulsion was replaced with physiological saline. For the modeling group, the animals were screened on Day 8 after injection: the mice with the injected paw thickness increased >0.5 mm and thermal hyperalgesia occurred (paw thermal withdrawal latency <8 second) were selected as experimental subjects. The selected mice were divided into 5 groups randomly: low, middle, high dose treatment group (0.8, 4, 20 mg/kg); indomethacin positive control group (10 mg/kg); negative control group (physiological saline), each comprising 12 animals. Day 8 after inflammation, intragastric administration was carried out on each group to give corresponding intervention, one time per day for 10 days continuously.
30 min after intragastric administration, the phlogogenic paw thermal withdrawal latency of the mice in each group was determined by photo-thermal dolorimeter to reflect animals' hyperalgesia status.

[4] = test system: type II collagen-induced arthritis rat; experiment: Type II collagen-induced arthritis rat: condition and body weight; assay type: in vivo, Wistar rat; conditions: for Body weight before intervention: from Day 21 after modeling for 10 days
Procedure: (§2) Under aseptic conditions, 10 mg chicken type II collagen protein was fully mixed with 5 ml 10 mM glacial acetic acid solution, and stirred overnight in refrigerator at 4° C. to fully dissolve it. It was mixed with complete Freund's adjuvant in equal volume in ice bath to fully emulsify into an emulsion with a collagen concentration of 1 mg/ml.
(§3) Wistar rats are divided into a modeling group and a false modeling group. After the modeling group rats were narcotized with intraperitoneal injection of pentobarbital, the above emulsion was injected intracutaneously at 3 to 4 positions at back, tail root or the like, 0.3 ml for each, an primary immunity was carried out. After 7 days, a secondary immunity was carried out, the emulsifying agent complete Freund's adjuvant of initial immunity was replaced with incomplete Freund's adjuvant, 0.1 ml the emulsion was injected under sevoflurane inhalation anesthesia wherein the injection position is different from the last time. In false modeling group, the emulsion was replaced with solvent glacial acetic acid solution.
Successfully modeled rat in the modeling group were randomly divide into 5 groups: low, middle, high-dose koumine treatment group, positive control group, negative control group, 10 rats for each group. Beginning from Day 21 after modeling, corresponding intervention was carried out as following in 10 days continuously: 0.6, 3, 15 mg/kg koumine were intragastrically administrated to the low, middle, high-dose koumine treatment group respectively, 1 time every day; 1 mg/kg amethopterin was administrated to the positive control group, 1 time every 3 days, equal volume of physiological saline was administrated for the remained days; equal volume of physiological saline was administrated to the negative control group.

[5] = test system: adjuvant arthritis mice; experiment: Adjuvant arthritis mice: joint pathology damage (HE staining); assay type: in vivo, Kunming mice; conditions: koumine 0.8, 4, 20 mg/kg intragastric; Day 19; dose dependent
Procedure: as §1, with “Day 8 after inflammation, intragastric administration was carried out on each group to give corresponding intervention, one time per day for 10 days continuously.” left out

[6] = test system: type II collagen-induced arthritis rat; experiment: Type II collagen-induced arthritis rat: mechanical hyperalgesia (Von-frey mechanical pain threshold); assay type: in vivo, Wistar rat; conditions: koumine 0.6, 3, 15 mg/kg intragastric; dose-effect relationship
Procedure: as §2
as §3, with “In false modeling group, the emulsion was replaced with solvent glacial acetic acid solution.” left out
1 hour after intragastric administration, the thermal withdrawal latency of each group was determined by the photo-thermal dolorimeter; the mechanical pain threshold of rats of each group was determined by Von-frey electromechanical pain threshold detector, thus the condition of thermal hyperalgesia and mechanical hyperalgesia of rats of each group was observed.

[7] = test system: serum type II collagen antibody; experiment: Type II collagen-induced arthritis rat: serum type II collagen antibody (ELISA); assay type: in vivo, Wistar rat; conditions: koumine 0.6, 3, 15 mg/kg intragastric once daily 10 days; after intervention finished; dose dependent
Procedure: as §2, §3
Successfully modeled rat in the modeling group were randomly divide into 5 groups: low, middle, high-dose koumine treatment group, positive control group, negative control group, 10 rats for each group. […]

[8] = test system: type II collagen-induced arthritis rat; experiment: Type II collagen-induced arthritis rat: joint pathological change, HE staining and pathological score; assay type: in vivo, Wistar rat; conditions: koumine 0.6, 3, 15 mg/kg intragastric; 10 days after intervention
Procedure: as §2
as §3, with “solution. […]” for “solution.”
The rats of each group were killed 10 days after intervention, the ankle joints of left hind limbs were picked off to conduct HE staining, and the pathological change was observed and scored. […]

[9] = koumine 0.8 mg/kg intragastric once daily from Day 8
[10] = koumine 4 mg/kg intragastric once daily from Day 8
[11] = koumine 20 mg/kg intragastric once daily from Day 8
[12] = koumine 0.6 mg/kg intragastric once daily from Day 21
[13] = koumine 3 mg/kg intragastric once daily from Day 21
[14] = koumine 15 mg/kg intragastric once daily from Day 21

Q: For `C=CC12CN(C)C3CC14C(=Nc1ccccc14)C1CC2C3CO1` (stereo not drawn) [Koumine], which LD50 [1] is on record?
A: 99 mg/kg

Q: And the “Effect on phlogogenic paw thickness (FIG. 2)” value [2]?
A: reduces the phlogogenic paw thickness of adjuvant arthritis mice in dose and time-dependent manner

Q: What about the “Thermal stimulus withdrawal latency, Before intervention” value ([3]; koumine 0.8 mg/kg intragastric once daily for 10 days from Day 8 after inflammation) of the same compound?
A: 14.1 ± 1.1 s

Q: And the “Thermal stimulus withdrawal latency, Intervention Day 4” value [3, 9]?
A: 5.9 ± 1.3^★★ second

Q: And the “Thermal stimulus withdrawal latency, Intervention Day 8” value [3, 9]?
A: 4.9 ± 1.1^★★ second

Q: And the “Thermal stimulus withdrawal latency, Intervention Day 12” value [3, 9]?
A: 4.9 ± 1.0*^★ second

Q: And the “Thermal stimulus withdrawal latency, Intervention Day 16” value [3, 9]?
A: 5.9 ± 1.0**^★ second

Q: What about the “Thermal stimulus withdrawal latency, Intervention Day 18” value [3, 9] of the same compound?
A: 6.1 ± 1.2**^★★ second

Q: What about the “Thermal stimulus withdrawal latency, Before intervention” value ([3]; koumine 4 mg/kg intragastric once daily for 10 days from Day 8 after inflammation) of the same compound?
A: 13.6 ± 1.1 s

Q: What about the “Thermal stimulus withdrawal latency, Intervention Day 4” value [3, 10] of the same compound?
A: 5.8 ± 1.5^★★ second

Q: And the “Thermal stimulus withdrawal latency, Intervention Day 8” value [3, 10]?
A: 4.3 ± 0.8 s

Q: What about the “Thermal stimulus withdrawal latency, Intervention Day 12” value [3, 10] of the same compound?
A: 6.7 ± 1.9**^★ second

Q: What about the “Thermal stimulus withdrawal latency, Intervention Day 16” value [3, 10] of the same compound?
A: 7.8 ± 1.9**^★ second

Q: What about the “Thermal stimulus withdrawal latency, Intervention Day 18” value [3, 10] of the same compound?
A: 8.4 ± 1.8**^★★ second

Q: And the “Thermal stimulus withdrawal latency, Before intervention” value ([3]; koumine 20 mg/kg intragastric once daily for 10 days from Day 8 after inflammation)?
A: 13.9 ± 1.1 s

Q: What about the “Thermal stimulus withdrawal latency, Intervention Day 4” value [3, 11] of the same compound?
A: 6.1 ± 1.4^★★ second

Q: And the “Thermal stimulus withdrawal latency, Intervention Day 8” value [3, 11]?
A: 4.7 ± 1.5^★★ second

Q: And the “Thermal stimulus withdrawal latency, Intervention Day 12” value [3, 11]?
A: 9.2 ± 1.2**^★ second

Q: What about the “Thermal stimulus withdrawal latency, Intervention Day 16” value [3, 11] of the same compound?
A: 10.7 ± 1.2**^★★ second

Q: What about the “Thermal stimulus withdrawal latency, Intervention Day 18” value [3, 11] of the same compound?
A: 10.8 ± 1.1**^★★ second

Q: What about the “Effect on thermal stimulus withdrawal latency (summary of Table 1)” value ([3]; koumine 0.8, 4, 20 mg/kg intragastric, dose-effect and time-effect relationships) of the same compound?
A: can significantly extend the thermal stimulus withdrawal latency

Q: And the “Body weight after intervention, Day 7” value [4, 12]?
A: 154.6 ± 7.20 g

Q: And the “Body weight after intervention, Day 14” value [4, 12]?
A: 173.1 ± 7.93 g

Q: And the “Body weight after intervention, Day 21” value [4, 12]?
A: 194.1 ± 16.67 g

Q: And the “Body weight after intervention, Day 31” value [4, 12]?
A: 235.8 ± 5.00 g

Q: What about the “Body weight before intervention” value ([4]; koumine 0.6 mg/kg intragastric once daily) of the same compound?
A: 129.9 ± 8.60 g

Q: And the “Body weight after intervention, Day 7” value [4, 13]?
A: 145.1 ± 9.24 g

Q: And the “Body weight after intervention, Day 14” value [4, 13]?
A: 173.7 ± 4.84 g

Q: What about the “Body weight after intervention, Day 21” value [4, 13] of the same compound?
A: 202.3 ± 9.57 g

Q: What about the “Body weight after intervention, Day 31” value [4, 13] of the same compound?
A: 240.2 ± 6.85 g

Q: What about the “Body weight before intervention” value ([4]; koumine 3 mg/kg intragastric once daily) of the same compound?
A: 126.5 ± 7.92 g

Q: What about the “Body weight after intervention, Day 7” value [4, 14] of the same compound?
A: 148.7 ± 8.73 g

Q: And the “Body weight after intervention, Day 14” value [4, 14]?
A: 176.9 ± 3.86 g

Q: What about the “Body weight after intervention, Day 21” value [4, 14] of the same compound?
A: 205.1 ± 6.94 g

Q: And the “Body weight after intervention, Day 31” value [4, 14]?
A: 260.3 ± 11.79 g

Q: What about the “Body weight before intervention” value ([4]; koumine 15 mg/kg intragastric once daily) of the same compound?
A: 127.8 ± 7.45 g

Q: What about the “Condition of rats (food intake, activity, fur, emaciation)” value ([4]; koumine 0.6, 3, 15 mg/kg intragastric once daily) of the same compound?
A: can be improved in a dose dependent manner

Q: What about the “Effect on body weight of type II collagen-induced arthritis rats (summary of Table 2)” value ([4]; koumine 0.6, 3, 15 mg/kg intragastric, robustness-promoting effect on high-dose group) of the same compound?
A: antagonistic effect on body weight reducing

Q: And the “Effect on joint pathology damage, HE staining (FIG. 3)” value [5]?
A: can improve the inflammatory cell infiltration, synovial hyperplasia, bone destruction

Q: And the “Effect on mechanical pain threshold (summary of Table 4)” value [6]?
A: improve mechanical pain threshold

Q: What about the “Effect on serum type II collagen antibody level (FIG. 5)” value [7] of the same compound?
A: significantly antagonistic effect on type II collagen antibody level increase

Q: What about the “Scores of pathologic change degree of ankle joints, HE staining (FIGS. 9 and 10)” value [8] of the same compound?
A: significantly decrease the scores of pathologic change degree of ankle joints
